BindingDB's records for doi:10.1021/jm021050c (Universit&#233, 2003)

Molecular target: imidazoline I2 binding site (Oryctolagus cuniculus)
Experiment: In vitro binding affinity determined against imidazoline receptor I-2 using rabbit kidney preparation

Question: How did the Ki turn out when c1cc2c3c(c1)OC(C1=NCCN1)CN3CCCC2 (stereo unspecified) [2-(4,5-Dihydro-1H-imidazol-2-yl)-1,2,7,8,9,10-hexahydro-3-oxa-10a-aza-cyclohepta[de]naphthalene] was run?
Answer: Its Ki is 643 nM.

Question: Which Ki does the source give for CN1CC(C)(C2=NCCN2)Oc2ccccc21 (stereo unspecified) [2-(4,5-Dihydro-1H-imidazol-2-yl)-2,4-dimethyl-3,4-dihydro-2H-benzo[1,4]oxazine] here?
Answer: Its Ki is over 10000 nM.

Question: Which Ki does the source give for c1ccc2c(c1)NCC(C1=NCCN1)O2 (stereo unspecified) [2-(4,5-Dihydro-1H-imidazol-2-yl)-3,4-dihydro-2H-benzo[1,4]oxazine] here?
Answer: Its Ki is 51 nM.

Question: With Cc1cccc2c1N(C)CC(C1=NCCN1)O2 (stereo unspecified) [2-(4,5-Dihydro-1H-imidazol-2-yl)-4,5-dimethyl-3,4-dihydro-2H-benzo[1,4]oxazine] as the molecule, how does the Ki read?
Answer: The Ki was 470 nM.

Question: How did the Ki turn out when Cc1cc(C)c2c(c1)N(C)CC(C1=NCCN1)O2 (stereo unspecified) [2-(4,5-Dihydro-1H-imidazol-2-yl)-4,6,8-trimethyl-3,4-dihydro-2H-benzo[1,4]oxazine] was run?
Answer: The Ki was over 1000 nM.

Question: How did the Ki turn out when Cc1ccc2c(c1)OC(C1=NCCN1)CN2C (stereo unspecified) [2-(4,5-Dihydro-1H-imidazol-2-yl)-4,7-dimethyl-3,4-dihydro-2H-benzo[1,4]oxazine] was run?
Answer: Its Ki is 47 nM.

Question: Which Ki does the source give for Cc1cccc2c1OC(C1=NCCN1)CN2C (stereo unspecified) [2-(4,5-Dihydro-1H-imidazol-2-yl)-4,8-dimethyl-3,4-dihydro-2H-benzo[1,4]oxazine] here?
Answer: The Ki was 54 nM.

Question: With CCCC1(C2=NCCN2)CN(C)c2ccccc2O1 (stereo unspecified) [2-(4,5-Dihydro-1H-imidazol-2-yl)-4-methyl-2-propyl-3,4-dihydro-2H-benzo[1,4]oxazine] as the molecule, how does the Ki read?
Answer: The Ki was 8530 nM.

Question: How did the Ki turn out when COC(=O)c1ccc2c(c1)N(C)CC(C1=NCCN1)O2 (stereo unspecified) [2-(4,5-Dihydro-1H-imidazol-2-yl)-4-methyl-3,4-dihydro-2H-benzo[1,4]oxazine-6-carboxylic acid methyl ester] was run?
Answer: Its Ki is 7 nM.

Question: With CN1CC(C2=NCCN2)Oc2cc3ccccc3cc21 (stereo unspecified) [2-(4,5-Dihydro-1H-imidazol-2-yl)-4-methyl-3,4-dihydro-2H-naphtho[2,3-b][1,4]oxazine] as the molecule, how does the Ki read?
Answer: Its Ki is 278 nM.

Question: With CCOCc1ccc2c(c1)N(C)CC(C1=NCCN1)O2 (stereo unspecified) [2-(4,5-Dihydro-1H-imidazol-2-yl)-6-ethoxymethyl-4-methyl-3,4-dihydro-2H-benzo[1,4]oxazine] as the molecule, how does the Ki read?
Answer: The Ki was 17 nM.

Question: COc1cc(=O)n2c3c(cccc13)OC(C1=NCCN1)C2 (stereo unspecified) [2-(4,5-Dihydro-1H-imidazol-2-yl)-6-methoxy-2,3-dihydro-1-oxa-3a-aza-phenalen-4-one] was tested. Which Ki did it give?
Answer: The Ki was 750 nM.

Question: How did the Ki turn out when Cc1ccc2c3c1CCCN3CC(C1=NCCN1)O2 (stereo unspecified) [2-(4,5-Dihydro-1H-imidazol-2-yl)-7-methyl-2,3,5,6-tetrahydro-4H-1-oxa-3a-aza-phenalene] was run?
Answer: The Ki was over 1000 nM.

Question: Which Ki does the source give for c1cc2c3c(c1)OC(C1=NCCN1)CN3CC2 (stereo unspecified) [4-(4,5-Dihydro-1H-imidazol-2-yl)-1,2,3,4-tetrahydro-5-oxa-2a-aza-acenaphthylene] here?
Answer: The Ki was 33 nM.

Question: How did the Ki turn out when CN1CC(C2=NCCN2)Oc2ccc(Cl)cc21 (stereo unspecified) [6-Chloro-2-(4,5-dihydro-1H-imidazol-2-yl)-4-methyl-3,4-dihydro-2H-benzo[1,4]oxazine] was run?
Answer: The Ki was 173 nM.

Question: With CN1CC(C2=NCCN2)Oc2ccc(CO)cc21 (stereo unspecified) [[2-(4,5-Dihydro-1H-imidazol-2-yl)-4-methyl-3,4-dihydro-2H-benzo[1,4]oxazin-6-yl]-methanol] as the molecule, how does the Ki read?
Answer: Its Ki is 100 nM.
